Values quoted from earlier work, collected in PMC7515950, “Physiologically based pharmacokinetic modeling to assess metabolic drug–drug interaction risks and inform the drug label for fedratinib” (Cancer Chemotherapy and Pharmacology, 2020).
Like-named read-outs stand apart in the source and are kept apart here.

Columns and labels:
OATP1B1 = molecular target: T1, OATP1B1 (Homo sapiens, UniProt Q9Y6L6); details: read-out: Km of probe substrate, OATP1B1; from literature; ref [14]; cited from earlier work
T1 sequence (Q9Y6L6 1-691): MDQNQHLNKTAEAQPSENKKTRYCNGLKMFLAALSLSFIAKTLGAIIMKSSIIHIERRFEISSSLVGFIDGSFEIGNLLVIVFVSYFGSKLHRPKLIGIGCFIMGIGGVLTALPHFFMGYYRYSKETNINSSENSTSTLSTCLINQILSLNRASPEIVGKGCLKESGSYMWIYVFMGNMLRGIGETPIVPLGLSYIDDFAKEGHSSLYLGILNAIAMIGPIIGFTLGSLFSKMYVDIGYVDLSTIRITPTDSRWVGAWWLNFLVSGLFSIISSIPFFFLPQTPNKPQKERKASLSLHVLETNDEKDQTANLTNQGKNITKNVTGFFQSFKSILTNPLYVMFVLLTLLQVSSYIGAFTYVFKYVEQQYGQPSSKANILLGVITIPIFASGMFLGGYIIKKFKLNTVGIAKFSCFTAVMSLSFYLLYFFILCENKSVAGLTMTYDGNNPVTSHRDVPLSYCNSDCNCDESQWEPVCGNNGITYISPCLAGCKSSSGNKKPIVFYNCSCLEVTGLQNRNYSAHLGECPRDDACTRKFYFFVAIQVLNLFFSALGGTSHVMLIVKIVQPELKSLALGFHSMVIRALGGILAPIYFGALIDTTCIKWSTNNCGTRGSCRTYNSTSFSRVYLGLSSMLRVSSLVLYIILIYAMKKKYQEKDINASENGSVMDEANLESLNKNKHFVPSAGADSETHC

OCT2 = molecular target: T2, OCT2 (Homo sapiens, UniProt O15244); details: read-out: Km of probe substrate, OCT2; from literature; ref [12]; cited from earlier work
T2 sequence (O15244 1-555): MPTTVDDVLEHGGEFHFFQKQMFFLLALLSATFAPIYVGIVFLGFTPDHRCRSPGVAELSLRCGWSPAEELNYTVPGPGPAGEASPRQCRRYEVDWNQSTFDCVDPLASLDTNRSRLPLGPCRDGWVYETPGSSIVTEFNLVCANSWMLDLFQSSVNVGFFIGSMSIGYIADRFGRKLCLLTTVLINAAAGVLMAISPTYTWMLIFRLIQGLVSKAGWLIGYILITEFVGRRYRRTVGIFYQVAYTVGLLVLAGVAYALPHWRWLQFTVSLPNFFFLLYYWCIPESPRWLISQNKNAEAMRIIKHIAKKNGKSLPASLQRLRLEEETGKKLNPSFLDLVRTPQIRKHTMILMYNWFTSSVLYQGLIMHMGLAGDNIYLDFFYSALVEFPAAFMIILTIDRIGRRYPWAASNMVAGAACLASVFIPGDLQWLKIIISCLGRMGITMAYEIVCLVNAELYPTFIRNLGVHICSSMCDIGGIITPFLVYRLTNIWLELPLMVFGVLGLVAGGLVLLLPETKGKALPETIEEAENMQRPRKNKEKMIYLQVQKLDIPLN

[1] = cancer patients, observation, cited from earlier work; for AUC GM Ratio (90% CI) / Cmax GM Ratio (90% CI): cocktail substrate with vs without fedratinib 500 mg QD
Caco-2/TC7 = details: reference compound of the Simcyp permeability input, 7.4:7.4; cited from earlier work
OCT1 = molecular target: T3, OCT1 (Homo sapiens, UniProt O15245); parameters: method as in earlier work; details: from literature; ref [11]; read-out: Km of probe substrate, OCT1; cited from earlier work
T3 construct: expressed in transfected cells; host or cells: CHO^Fi-hOCT1
T3 sequence (O15245 1-554): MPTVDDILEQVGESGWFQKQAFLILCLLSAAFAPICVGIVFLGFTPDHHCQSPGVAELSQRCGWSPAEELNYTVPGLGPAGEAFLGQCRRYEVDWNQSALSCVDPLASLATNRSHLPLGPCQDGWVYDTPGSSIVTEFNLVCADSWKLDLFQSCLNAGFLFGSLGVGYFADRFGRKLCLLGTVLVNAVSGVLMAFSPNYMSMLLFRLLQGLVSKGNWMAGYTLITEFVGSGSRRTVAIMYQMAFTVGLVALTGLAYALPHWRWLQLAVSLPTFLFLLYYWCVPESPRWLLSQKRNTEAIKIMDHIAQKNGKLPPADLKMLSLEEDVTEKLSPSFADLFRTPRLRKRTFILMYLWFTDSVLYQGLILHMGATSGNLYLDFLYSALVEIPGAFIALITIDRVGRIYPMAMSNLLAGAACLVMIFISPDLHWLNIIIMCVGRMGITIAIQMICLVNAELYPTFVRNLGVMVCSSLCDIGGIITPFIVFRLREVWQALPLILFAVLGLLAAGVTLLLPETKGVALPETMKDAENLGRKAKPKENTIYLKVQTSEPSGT

P-gp = P-gp (Homo sapiens, UniProt P08183); details: read-out: Km of probe substrate, P-gp; from literature; ref [16]; cited from earlier work
OATP1B3 = molecular target: T4, OATP1B3 (Homo sapiens, UniProt Q9NPD5); details: cited from earlier work
T4 sequence (Q9NPD5 1-702): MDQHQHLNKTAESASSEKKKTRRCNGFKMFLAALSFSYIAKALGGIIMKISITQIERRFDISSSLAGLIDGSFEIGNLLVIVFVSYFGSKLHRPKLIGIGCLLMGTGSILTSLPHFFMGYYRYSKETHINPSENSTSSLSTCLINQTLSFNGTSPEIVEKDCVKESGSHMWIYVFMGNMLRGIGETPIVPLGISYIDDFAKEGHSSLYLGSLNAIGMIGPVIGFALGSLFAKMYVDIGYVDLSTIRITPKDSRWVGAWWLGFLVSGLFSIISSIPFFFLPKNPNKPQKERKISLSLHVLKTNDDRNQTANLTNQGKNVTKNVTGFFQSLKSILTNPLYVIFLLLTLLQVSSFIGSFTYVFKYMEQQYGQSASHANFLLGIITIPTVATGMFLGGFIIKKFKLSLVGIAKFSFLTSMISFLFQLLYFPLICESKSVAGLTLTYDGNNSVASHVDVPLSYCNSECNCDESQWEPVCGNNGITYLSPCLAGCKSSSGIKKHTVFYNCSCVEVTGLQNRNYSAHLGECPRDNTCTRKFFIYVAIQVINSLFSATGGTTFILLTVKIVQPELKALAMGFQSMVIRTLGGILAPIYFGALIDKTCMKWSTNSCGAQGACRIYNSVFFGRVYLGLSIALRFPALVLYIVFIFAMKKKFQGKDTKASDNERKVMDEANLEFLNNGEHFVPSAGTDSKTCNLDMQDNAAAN

[2] = cocktail substrate + fedratinib 500 mg QD, GM
[3] = cocktail substrate + fedratinib 500 mg QD, Mean (SD)
[4] = cocktail substrate alone, Mean (SD)

Sequence of P-gp (P08183 whole entry): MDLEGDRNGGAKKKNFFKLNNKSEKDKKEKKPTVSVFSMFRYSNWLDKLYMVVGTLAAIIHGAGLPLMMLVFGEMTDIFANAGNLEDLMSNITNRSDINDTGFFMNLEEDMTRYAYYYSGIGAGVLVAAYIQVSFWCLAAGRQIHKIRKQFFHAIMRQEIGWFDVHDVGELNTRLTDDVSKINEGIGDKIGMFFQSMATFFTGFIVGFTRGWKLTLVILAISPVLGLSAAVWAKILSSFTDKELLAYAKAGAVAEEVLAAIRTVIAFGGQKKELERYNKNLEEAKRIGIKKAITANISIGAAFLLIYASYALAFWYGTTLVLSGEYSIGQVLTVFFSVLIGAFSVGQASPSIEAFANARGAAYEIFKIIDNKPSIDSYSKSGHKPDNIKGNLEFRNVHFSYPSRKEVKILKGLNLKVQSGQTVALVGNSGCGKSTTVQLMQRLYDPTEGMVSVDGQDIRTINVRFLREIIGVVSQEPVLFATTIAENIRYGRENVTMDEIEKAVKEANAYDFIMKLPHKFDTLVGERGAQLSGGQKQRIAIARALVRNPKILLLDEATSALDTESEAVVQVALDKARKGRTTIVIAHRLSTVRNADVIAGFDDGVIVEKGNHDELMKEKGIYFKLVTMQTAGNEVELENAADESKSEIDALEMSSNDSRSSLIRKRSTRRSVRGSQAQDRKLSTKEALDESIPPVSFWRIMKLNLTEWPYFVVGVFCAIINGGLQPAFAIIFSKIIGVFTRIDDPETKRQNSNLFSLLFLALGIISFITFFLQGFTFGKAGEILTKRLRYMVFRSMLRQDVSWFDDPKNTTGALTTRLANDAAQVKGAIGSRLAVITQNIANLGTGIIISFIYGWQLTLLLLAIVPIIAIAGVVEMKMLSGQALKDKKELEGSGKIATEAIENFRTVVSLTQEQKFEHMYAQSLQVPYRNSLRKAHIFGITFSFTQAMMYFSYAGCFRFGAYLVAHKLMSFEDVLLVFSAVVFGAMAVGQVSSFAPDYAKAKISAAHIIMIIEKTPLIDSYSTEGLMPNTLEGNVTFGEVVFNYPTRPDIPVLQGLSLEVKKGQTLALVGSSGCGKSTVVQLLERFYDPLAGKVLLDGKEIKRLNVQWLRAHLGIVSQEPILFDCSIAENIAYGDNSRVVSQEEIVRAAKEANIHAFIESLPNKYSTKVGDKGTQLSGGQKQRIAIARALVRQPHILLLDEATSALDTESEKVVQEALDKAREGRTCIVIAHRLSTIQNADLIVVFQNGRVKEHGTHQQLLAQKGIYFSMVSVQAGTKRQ

## C[C@]12CC[C@@H]3c4ccc(O)cc4CC[C@H]3[C@@H]1CC[C@@H]2O[C@@H]1O[C@H](C(=O)O)[C@@H](O)[C@H](O)[C@H]1O [Estradiol-17β-glucuronide]
OATP1B1
  Km: 8.17 µM

## CN(C)C(=N)N=C(N)N [Metformin]
OCT2
  Km: 235 µM

## COCCc1ccc(OCC(O)CNC(C)C)cc1 (stereo not drawn) [Metoprolol]
[1]; [2]
  AUC (AUCinf): 1180 ng·h/mL
  Cmax: 199 ng/mL
[1]; [3]
  AUC (AUCinf): 1460 (938) ng/mL·h
  Cmax: 221 (106) ng/mL
[1]; cocktail substrate alone, GM
  AUC (AUCinf): 731 ng·h/mL
[1]; [4]
  AUC (AUCinf): 880 (545) ng/mL·h
[1]
  AUC GM Ratio (90% CI): 1.77 (1.27–2.47)
  Cmax GM Ratio (90% CI): 1.60 (1.25–2.05)
[1]; listed as metoprolol
  AUC GM Ratio (90% CI): 1.77
  Cmax GM Ratio (90% CI): 1.60

## Cc1ncc2n1-c1ccc(Cl)cc1C(c1ccccc1F)=NC2 [Midazolam]
[1]; [2]
  AUC (AUCinf): 148 ng·h/mL
  Cmax: 24.2 ng/mL
[1]; [3]
  AUC (AUCinf): 152 (38.6) ng/mL·h
  Cmax: 25.9 (8.75) ng/mL
[1]; cocktail substrate alone (midazolam 2 mg, omeprazole 20 mg, metoprolol 100 mg once), GM
  Cmax: 13.4 ng/mL
[1]; cocktail substrate alone (midazolam 2 mg, omeprazole 20 mg, metoprolol 100 mg once), Mean (SD)
  Cmax: 14.8 (7.56) ng/mL
[1]; cocktail substrate alone, GM
  AUC (AUCinf): 41.5 ng·h/mL
[1]; [4]
  AUC (AUCinf): 52.2 (37.9) ng/mL·h
[1]
  AUC GM Ratio (90% CI): 3.84 (2.62–5.63)
  Cmax GM Ratio (90% CI): 1.82 (1.49–2.21)

## COc1ccc2[nH]c([S+]([O-])Cc3ncc(C)c(OC)c3C)nc2c1 (stereo not drawn) [Omeprazole]
[1]; [2]
  AUC (AUCinf): 4690 ng·h/mL
  Cmax: 537 ng/mL
[1]; [3]
  AUC (AUCinf): 5950 (3560) ng/mL·h
  Cmax: 615 (286) ng/mL
[1]; cocktail substrate alone, GM
  AUC (AUCinf): 1590 ng·h/mL
[1]; [4]
  AUC (AUCinf): 2210 (1740) ng/mL·h
[1]
  AUC GM Ratio (90% CI): 2.82 (2.26–3.53)
  Cmax GM Ratio (90% CI): 1.12 (0.81–1.53)
[1]; listed as omeprazole
  AUC GM Ratio (90% CI): 2.82
  Cmax GM Ratio (90% CI): 1.12

## CC(C)NCC(O)COc1cccc2ccccc12 (stereo not drawn) [Propranolol]
Caco-2/TC7
  Reference Compound Value (PCaco-2): 43.000 10E-06 cm/s

## CC[N+](CC)(CC)CC [TEA]
OCT1
  Km: 296 µM

## C[C@H]1O[C@@H](O[C@H]2[C@@H](O)C[C@H](O[C@H]3[C@@H](O)C[C@H](O[C@H]4CC[C@@]5(C)[C@H](CC[C@@H]6[C@@H]5C[C@@H](O)[C@]5(C)[C@@H](C7=CC(=O)OC7)CC[C@]65O)C4)O[C@@H]3C)O[C@@H]2C)C[C@H](O)[C@@H]1O [digoxin]
P-gp
  Km: 385 µM

## CCK8
OATP1B3
  Km: 3.8 µM
